Assay results as given in patent US20260167623A1 (NIKANG THERAPEUTICS, INC., priority 2022, published 2026).
pIC50: −log10 of the molar value.

Columns and labels:
[1] = target: T1, CDK2 (Homo sapiens, UniProt P24941); test: High-throughput HTRF measurement of cellular endogenous CDK2 level (degradation, DC50/Dmax) in OVCAR3 cells, 6 h; type: cell-based; conditions: 6 h compound treatment, HTRF total CDK2, read-out: DC50_OVCAR3_6h
T1 construct: High-Throughput Measurement of Cellular Endogenous CDK2; endogenous in cells; host or cells: OVCAR3
Method in brief: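 OVCAR3 cells were treated overnight after seeding with compounds at 0.03–1,000 nM for 6 h, then lysed. Total CDK2 was quantified by HTRF (d2- and Eu-cryptate anti-CDK2 antibodies, […] ratio) after overnight incubation at room temperature. Data normalized to DMSO (0%) and lysis buffer (100% degradation); DC50 from four-parameter logistic fit.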

[2] = target: T1, CDK2; test: Inhibition of CDK2: phospho-Rb (S807/811) HTRF measurement in OVCAR3 cells, 24 h; type: cell-based; conditions: 24 h compound treatment, read-out: pRB_OVCAR3_24h
Method in brief: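 OVCAR3 cells, seeded overnight, were exposed to compounds at 0.3 to 10,000 nM for 24 h, then lysed. Rb S807/811 phosphorylation read by HTRF (665/620 nm ratio) after 4 h detection at room temperature; data normalized to DMSO and IC50 from four-parameter logistic fit.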

Cn1nc(N2CCC(=O)NC2=O)c2ccc(C3CCN(CC4CCN(c5cc(S(=O)(=O)N6CCC(Nc7ncc(C(F)(F)F)cn7)CC6)ccc5C#N)CC4)CC3)cc21 [Example 152, 2-(4-((4-(3-(2,4-dioxotetrahydropyrimidin-1(2H)-yl)-1-methyl-1H-indazol-6-yl)piperidin-1-yl)methyl)piperidin-1-yl)-4-((4-((5-(trifluoromethyl)pyrimidin-2-yl)amino)piperidin-1-yl)sulfonyl)benzonitrile]
DC50 [1]: 1 to 10 nM | pIC50 [2]: 7.00 to 9.00

O=C1CCC(n2c(=O)oc3c(C4CCN(CC5CCN(c6cccc(S(=O)(=O)N7CCC(Nc8ncc(Cl)cn8)CC7)c6)CC5)CC4)cccc32)C(=O)N1 (centres unmarked) [Example 168, 3-(7-(1-((1-(3-((4-((5-chloropyrimidin-2-yl)amino)piperidin-1-yl)sulfonyl)phenyl)piperidin-4-yl)methyl)piperidin-4-yl)-2-oxobenzo[d]oxazol-3(2H)-yl)piperidine-2,6-dione]
DC50 [1]: 10 to 100 nM | pIC50 [2]: 7.00 to 9.00

Cn1c(=O)n(C2CCC(=O)NC2=O)c2ccc(F)c(C3CCN(CC4CCN(c5cc(S(=O)(=O)N6CCC(Nc7ncc(Cl)cn7)CC6)ccc5C#N)CC4)CC3)c21 (centres unmarked) [Example 216, 4-((4-((5-chloropyrimidin-2-yl)amino)piperidin-1-yl)sulfonyl)-2-(4-((4-(1-(2,6-dioxopiperidin-3-yl)-5-fluoro-3-methyl-2-oxo-2,3-dihydro-1H-benzo[d]imidazol-4-yl)piperidin-1-yl)methyl)piperidin-1-yl)benzonitrile]
DC50 [1]: 10 to 100 nM | pIC50 [2]: 7.00 to 9.00

C=Cc1cnc(NC2CCN(S(=O)(=O)c3cccc(N4CCC(CN5CCC(c6ccc7c(N8CCC(=O)NC8=O)nn(C)c7c6)CC5)CC4)c3)CC2)nc1 [Example 208, 1-(1-methyl-6-(1-((1-(3-((4-((5-vinylpyrimidin-2-yl)amino)piperidin-1-yl)sulfonyl)phenyl)piperidin-4-yl)methyl)piperidin-4-yl)-1H-indazol-3-yl)dihydropyrimidine-2,4(1H,3H)-dione]
DC50 [1]: 1 to 10 nM | pIC50 [2]: 7.00 to 9.00
